# From patent publication US11427548B2 (Arvinas Operations, Inc., priority 2015, dated 2022)
# Like-named read-outs stand apart in the source and are kept apart here.
# Target: T1, Androgen Receptor (Homo sapiens, UniProt P10275)
# T1 construct: endogenous in cells; host or cells: VCaP cells
# T1 sequence (P10275 1-920): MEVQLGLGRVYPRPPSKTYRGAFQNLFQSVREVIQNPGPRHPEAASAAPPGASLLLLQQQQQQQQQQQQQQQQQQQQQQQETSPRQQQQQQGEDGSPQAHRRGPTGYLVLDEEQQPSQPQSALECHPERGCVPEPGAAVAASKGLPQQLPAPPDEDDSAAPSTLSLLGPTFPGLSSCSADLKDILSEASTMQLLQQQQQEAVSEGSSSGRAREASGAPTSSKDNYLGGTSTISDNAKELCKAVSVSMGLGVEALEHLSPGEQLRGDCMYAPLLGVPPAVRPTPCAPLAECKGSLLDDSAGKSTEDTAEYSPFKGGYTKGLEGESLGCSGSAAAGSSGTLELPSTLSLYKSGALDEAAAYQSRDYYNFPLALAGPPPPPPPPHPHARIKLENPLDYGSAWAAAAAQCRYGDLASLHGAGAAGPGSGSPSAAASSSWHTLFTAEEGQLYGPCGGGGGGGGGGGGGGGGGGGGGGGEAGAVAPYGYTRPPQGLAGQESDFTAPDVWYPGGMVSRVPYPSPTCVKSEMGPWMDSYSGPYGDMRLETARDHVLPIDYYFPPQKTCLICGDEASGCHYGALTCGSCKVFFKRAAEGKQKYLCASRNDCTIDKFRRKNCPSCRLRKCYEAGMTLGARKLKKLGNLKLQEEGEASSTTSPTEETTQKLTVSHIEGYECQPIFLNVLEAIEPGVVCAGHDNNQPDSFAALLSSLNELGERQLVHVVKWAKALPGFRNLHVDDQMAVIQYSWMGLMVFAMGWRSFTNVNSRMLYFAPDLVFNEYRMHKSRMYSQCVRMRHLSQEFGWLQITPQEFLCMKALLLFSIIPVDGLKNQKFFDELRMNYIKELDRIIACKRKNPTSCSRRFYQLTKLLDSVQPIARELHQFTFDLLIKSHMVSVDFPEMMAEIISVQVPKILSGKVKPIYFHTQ
# Assay: Androgen Receptor ELISA assay (PathScan AR ELISA) in VCaP cells: AR degradation, Dmax and DC50
# Type: cell-based
# Procedure, shortened: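 VCaP cells in phenol red-free RPMI with 5% charcoal-stripped FBS were grown at least 3 days, then given compound as 7 half-log doses in 0.1% DMSO with 0.1 nM R1881 for 24 h. Lysates went into a sandwich AR ELISA with TMB read at 450 nm.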
# [1] = VCaP cells; Table 36; read-out: VCaP DC50
# [2] = VCaP, VCaP cells; Table 36; read-out: VCaP Dmax (%)
# [3] = VCaP, read-out: VCaP Dmax (%), VCaP cells; Table 36
Structure (SMILES),DC50 [1] [nM],"Dmax (VCaP, read-out: VCaP Dmax (%)) [%]",other results
"CO[C@@H]1C[C@@H](C(=O)N(C)Cc2ccc(-c3scnc3C)cc2)N(C(=O)[C@@H](N(C)C(=O)COCCCCCN(C)c2ccc(C(=O)N(C)[C@H]3C(C)(C)[C@H](Oc4ccc(C#N)c(C(F)(F)F)c4)C3(C)C)nc2)C(C)(C)C)C1 [Example 709, N-((1r,3r)-3-(4-cyano-3-(trifluoromethyl)phenoxy)-2,2,4,4-tetramethylcyclobutyl)-5-((5-(2-(((S)-1-((2S,4R)-4-methoxy-2-(methyl(4-(4-methylthiazol-5-yl)benzyl)carbamoyl)pyrrolidin-1-yl)-3,3-dimethyl-1-oxobutan-2-yl)(methyl)amino)-2-oxoethoxy)pentyl)(meth-yl)amino)-N-methylpicolinamide]",> 501,,Dmax [2]: < 25%
"Cc1ncsc1-c1ccc(CNC(=O)[C@@H]2C[C@@H](O)CN2C(=O)[C@@H](NC(=O)CN2CCN(CCCc3cn(-c4ccc(C(=O)N[C@H]5C(C)(C)[C@H](Oc6ccc(C#N)c(C(F)(F)F)c6)C5(C)C)cc4)nn3)CC2)C(C)(C)C)cc1 [Example 710, (2S,4R)-1-((S)-2-(2-(4-(3-(1-(4-(((1r,3r)-3-(4-cyano-3-(trifluoromethyl)phenoxy)-2,2,4,4-tetramethylcyclobutyl)carbamoyl)phenyl)-1H-1,2,3-triazol-4-yl)propyl)piperazin-1-yl)acetamido)-3,3-dimethylbutanoyl)-4-hydroxy-N-(4-(4-methylthiazol-5-yl)benzyl)pyrrolidine-2-carboxamide]",< 50,51 to 70,
"Cc1ncsc1-c1ccc(CNC(=O)[C@@H]2C[C@@H](O)CN2C(=O)C(NC(=O)COCCN2CCN(c3ccc(C(=O)N[C@H]4C(C)(C)[C@H](Oc5ccc(C#N)c(C(F)(F)F)c5)C4(C)C)cn3)C(=O)C2)C(C)(C)C)cc1 (stereo partly drawn) [Example 711, N-((1r,3r)-3-(4-cyano-3-(trifluoromethyl)phenoxy)-2,2,4,4-tetramethylcyclobutyl)-6-(4-(2-(2-(((S)-1-((2S,4R)-4-hydroxy-2-((4-(4-methylthiazol-5-yl)benzyl)carbamoyl)pyrrolidin-1-yl)-3,3-dimethyl-1-oxobutan-2-yl)amino)-2-oxoethoxy)ethyl)-2-oxopiperazin-1-yl)nicotinamide]",< 50,,VCaP Dmax (%) (VCaP cells; Table 36): + (Dmax ≤ 25%)
"Cc1ncsc1-c1ccc([C@H](NC(=O)[C@@H]2C[C@@H](O)CN2C(=O)[C@@H](NC(=O)CN2CCN(CCCc3ccc(C(=O)N[C@H]4C(C)(C)[C@H](Oc5ccc(C#N)c(C(F)(F)F)c5)C4(C)C)cc3)CC2)C(C)(C)C)C2COC2)cc1 [Example 712, (2S,4R)-1-((S)-2-(2-(4-(3-(4-(((1r,3r)-3-(4-cyano-3-(trifluoromethyl)phenoxy)-2,2,4,4-tetramethylcyclobutyl)carbamoyl)phenyl)propy)piperazin-1-yl)acetamido)-3,3-dimethylbutanoyl)-4-hydroxy-N-((R)-(4-(4-methylthiazol-5-yl)phenyl)(oxetan-3-yl)methyl)pyrrolidine-2-carboxamide]",> 501,< 25,
"Cc1ncsc1-c1ccc([C@@H](NC(=O)[C@@H]2C[C@@H](O)CN2C(=O)[C@@H](NC(=O)CN2CCN(CCCc3ccc(C(=O)N[C@H]4C(C)(C)[C@H](Oc5ccc(C#N)c(C(F)(F)F)c5)C4(C)C)cc3)CC2)C(C)(C)C)C2COC2)cc1 [Example 713, (2S,4R)-1-((S)-2-(2-(4-(3-(4-(((1r,3r)-3-(4-cyano-3-(trifluoromethyl)phenoxy)-2,2,4,4-tetramethylcyclobutyl)carbamoyl)phenyl)propyl)piperazin-1-yl)acetamido)-3,3-dimethylbutanoyl)-4-hydroxy-N-((S)-(4-(4-methylthiazol-5-yl)phenyl)(oxetan-3-yl)methyl)pyrrolidine-2-carboxamide]",< 50,< 25,
"Cc1ncsc1-c1ccc([C@H](C)NC(=O)[C@@H]2C[C@@H](O)CN2C(=O)[C@@H](NC(=O)CCCN(C)[C@H](C(=O)N[C@H](C(=O)N(C)CCOc2ccc(N3C(=S)N(c4ccc(C#N)c(C(F)(F)F)c4)C(=O)C3(C)C)cc2)C(C)C)C(C)C)C(C)(C)C)cc1 [Example 714, (2S,4R)-1-((5S,8S,15S)-15-(tert-butyl)-1-(4-(3-(4-cyano-3-(trifluoromethyl)phenyl)-5,5-dimethyl-4-oxo-2-thioxoimidazolidin-1-yl)phenoxy)-5,8-diisopropyl-3,9-dimethyl-4,7,13-trioxo-3,6,9,14-tetraazahexadecan-16-oyl)-4-hydroxy-N-((S)-1-(4-(4-methylthiazol-5-yl)phenyl)ethyl)pyrrolidine-2-carboxamide]",,< 25,DC50 (read-out: VCaP DC50; VCaP cells; Table 36): > 501 nM
"Cc1ncsc1-c1ccc([C@H](C)NC(=O)[C@@H]2C[C@@H](O)CN2C(=O)[C@@H](NC(=O)CN2CCN(CCCN3CCN(c4ccc(C(=O)N[C@H]5C(C)(C)[C@H](Oc6ccc(C#N)c(C#N)c6)C5(C)C)cn4)CC3)CC2)C(C)(C)C)cc1 [Example 715, N-((1r,3r)-3-(3,4-dicyanophenoxy)-2,2,4,4-tetramethylcyclobutyl)-6-(4-(3-(4-(2-(((S)-1-((2S,4R)-4-hydroxy-2-(((S)-1-(4-(4-methylthiazol-5-yl)phenyl)ethyl)carbam-oyl)pyrrolidin-1-yl)-3,3-dimethyl-1-oxobutan-2-yl)amino)-2-oxoethyl)piperazin-1-yl)propyl)piperazin-1-yl)nicotinamide]",< 50,,Dmax [3]: 51 to 70%
"Cc1nc(O[C@H]2C(C)(C)[C@H](NC(=O)c3ccc(N4CCN(CCCN5CCN(CC(=O)O[C@H](C(=O)N6C[C@H](O)C[C@H]6C(=O)N[C@@H](C)c6ccc(-c7scnc7C)cc6)C(C)(C)C)CC5)CC4)nc3)C2(C)C)ccc1C#N [Example 716, N-((1r,3r)-3-((5-cyano-6-methylpyridin-2-yl)oxy)-2,2,4,4-tetramethylcyclobutyl)-6-(4-(3-(4-(2-(((S)-1-((2S,4R)-4-hydroxy-2-(((S)-1-(4-(4-methylthiazol-5-yl)phenyl)ethyl)carbam-oyl)pyrrolidin-1-yl)-3,3-dimethyl-1-oxobutan-2-yl)amino)-2-oxoethyl)piperazin-1-yl)propyl)piperazin-1-yl)nicotinamdie]",> 501,,Dmax [2]: 26 to 50%
"Cc1ncsc1-c1ccc([C@H](C)NC(=O)[C@@H]2C[C@@H](O)CN2C(=O)[C@@H](NC(=O)CN2CCN(CCCN3CCN(c4ccc(C(=O)N[C@H]5C(C)(C)[C@H](Oc6ccc(C#N)c(Cl)c6)C5(C)C)cn4)CC3)CC2)C(C)(C)C)cc1 [Example 717, N-((1r,3r)-3-(3-chloro-4-cyanophenoxy)-2,2,4,4-tetramethylcyclobutyl)-6-(4-(3-(4-(2-(((S)-1-((2S,4R)-4-hydroxy-2-(((S)-1-(4-(4-methylthiazol-5-yl)phenyl)ethyl)carbam-oyl)pyrrolidin-1-yl)-3,3-dimethyl-1-oxobutan-2-yl)amino)-2-oxoethyl)piperazin-1-yl)propyl)piperazin-1-yl)nicotinamide]",< 50,51 to 70,
"CO[C@@H]1C[C@@H](C(=O)N(C)Cc2ccc(-c3scnc3C)cc2)N(C(=O)[C@@H](N(C)C(=O)COCCCCCN(C)c2ccc(C(=O)N[C@H]3C(C)(C)[C@H](Oc4ccc(C#N)c(C(F)(F)F)c4)C3(C)C)nc2)C(C)(C)C)C1 [Example 718, N-((1r,3r)-3-(4-cyano-3-(trifluoromethyl)phenoxy)-2,2,4,4-tetramethylcyclobutyl)-5-((5-(2-(((S)-1-((2S,4R)-4-methoxy-2-(methyl(4-(4-methylthiazol-5-yl)benzyl)carbamoyl)pyrrolidin-1-yl)-3,3-dimethyl-1-oxobutan-2-yl)(methyl)amino)-2-oxoethoxy)pentyl)(meth-yl)amino)picolinamide]",> 501,,Dmax [2]: < 25%
"Cc1ncsc1-c1ccc([C@H](C)NC(=O)[C@@H]2C[C@@H](O)CN2C(=O)[C@@H](NC(=O)COCCc2cn(-c3ccc(C(=O)N[C@H]4C(C)(C)[C@H](Oc5ccc(C#N)c(C(F)(F)F)c5)C4(C)C)cc3)nn2)C(C)(C)C)cc1 [Example 719, (2S,4R)-1-((S)-2-(2-(2-(1-(4-(((1r,3r)-3-(4-cyano-3-(trifluoromethyl)phenoxy)-2,2,4,4-tetramethylcyclobutyl)carbamoyl)phenyl)-1H-1,2,3-triazol-4-yl)ethoxy)acetamido)-3,3-dimethylbutanoyl)-4-hydroxy-N-((S)-1-(4-(4-methylthiazol-5-yl)phenyl)ethyl)pyrrolidine-2-carboxamide]",< 50,,Dmax [3]: > 71%
